Assay results from patent publication US20100298252A1, “METHODS AND COMPOSITIONS FOR OPHTHALMIC TREATMENT OF FUNGAL AND BACTERIAL INFECTIONS” (priority 2004, published 2010).
Values after ≈ are worked out from the molar mass of the structure shown.

Tests used:
Staphylococcus aureus = assay: Antibiotic resistance profile by disc diffusion; format: cell-based; parameters: key: R = resistant; I = intermediate; S = sensitive; details: disc diffusion on MHA
Experimental: (§1) The organisms of this study were isolated from human burn patients. They included strains of methicillin resistant Staphylococcus aureus, and vancomycin resistant strains of Pseudomonas aeruginosa and Enterococcus faecalis. The bacterial isolates were propagated in or on Brain Heart Infusion broth (BHI), Mueller-Hinton Broth (MHB), blood agar (BA), Mueller-Hinton agar (MHA), enterococcus agar (EA), or 2× nutrient agar (2×NA).
(§2) Antibiotic resistance profiles were determined by the disc diffusion method on MHA (5).

Enterococcus faecalis = assay: Antibiotic resistance profile by disc diffusion; format: cell-based; parameters: key: R = resistant; I = intermediate; S = sensitive; details: disc diffusion on MHA
Experimental: as §1, §2

Pseudomonas aeruginosa = assay: Antibiotic resistance profile by disc diffusion; format: cell-based; parameters: key: R = resistant; I = intermediate; S = sensitive; details: disc diffusion on MHA
Experimental: as §1, §2

[1] = system: Paecilomyces variotti ATCC 36257; assay: Antifungal MIC 50 / MIC 90 alone and combined with Tricide; format: cell-based
Aspergillus sp. = assay: as above; format: cell-based
Fusarium sp. 2 = assay: microbe, parasite or virus in culture; format: cell-based
Penicillium sp. = assay: Antifungal MIC 50 / MIC 90 alone and combined with Tricide; format: cell-based
[2] = system: Candidia albicans ATCC 90028; assay: as above; format: cell-based, Candida albicans;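 also: MIC 50 and MIC 90 values are means, and the percent decrease is the drop in MIC when the antifungal is combined with Tricide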
Cladosporium sp. = assay: as above; format: cell-based
Curvularia sp. = assay: as above; format: cell-based;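 also: antifungal MIC 50 and MIC 90 values against fungal isolates, with percent figures expressing how much the MIC fell once Tricide was added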
Fusarium sp. 1 = assay: microbe, parasite or virus in culture; format: cell-based;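 also: mean MIC 50 and MIC 90 values against fungal isolates, with percent decrease in MIC when the antifungal is combined with Tricide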
Fusarium sp. 3 = assay: microbe, parasite or virus in culture; format: cell-based
[3] = Paecilomyces variotti ATCC36257
[4] = Paecilomyces variotti, Tricide […]
[5] = Aspergillus sp., Tricide 200 ug/ml
[6] = Aspergillus, Aspergiullus sp., antifungal alone
[7] = Candida albicans, ATCC90028, Candidia albicans ATCC 90028, antifungal alone
[8] = Curvilaria sp., Tricide 200 ug/ml
[9] = Curvularia sp., antifungal alone
[10] = Fusarium sp. 1, Tricide 540 ug/ml
[11] = Fusarium sp. 1, antifungal alone

Which results are given for gentamicin [Gm]?
Antibiotic resistance profile (Staphylococcus aureus): S; Antibiotic resistance profile (Enterococcus faecalis): R; Antibiotic resistance profile (Pseudomonas aeruginosa): I

Which results are given for CC(=O)N1CCN(c2ccc(OCC3COC(Cn4ccnc4)(c4ccc(Cl)cc4Cl)O3)cc2)CC1 (stereo not shown) [Ketoconazole, ketoconazole]?
Summary % reduction in MIC 50 using Tricide [1, 3]: 100%; Summary % reduction in MIC 90 using Tricide [1, 3]: 75%; % decrease MIC 50 [1, 4]: 100%; % decrease MIC 90 [1, 4]: 75%; MIC 50 combined with Tricide [1, 4]: 0 µg/mL; MIC 90 combined with Tricide [1, 4]: 0.25 µg/mL; MIC50 ([1]; Paecilomyces, ATCC36257): 0.0382 µg/mL; MIC90 ([1]; Paecilomyces, ATCC36257): 1 µg/mL; % decrease MIC 50 (Aspergillus sp.; [5]): 87.5%; % decrease MIC 90 (Aspergillus sp.; [5]): 95.8%; MIC 50 combined with Tricide (Aspergillus sp.; [5]): 0.25 µg/mL; MIC 90 combined with Tricide (Aspergillus sp.; [5]): 0.5 µg/mL; MIC50 (Aspergillus sp.; [6]): 2 µg/mL; MIC90 (Aspergillus sp.; [6]): 12 µg/mL; Summary % reduction in MIC 50 using Tricide (Aspergillus sp.; Aspergiullus sp.): 87.5%; Summary % reduction in MIC 90 using Tricide (Aspergillus sp.; Aspergiullus sp.): 95.8%; Summary % reduction in MIC 50 using Tricide (Fusarium sp. 2): >99.5%-100%; Summary % reduction in MIC 90 using Tricide (Fusarium sp. 2): 99.9%-100%; % decrease MIC 50 (Fusarium sp. 2; Tricide 540 ug/ml): >99.5-100% ^; % decrease MIC 90 (Fusarium sp. 2; Tricide 540 ug/ml): >99.9-100% ^; MIC50 (Fusarium sp. 2; antifungal alone): 11.2 µg/mL (≈ 21.1 µM); MIC90 (Fusarium sp. 2; antifungal alone): 64 µg/mL (≈ 120 µM); Summary % reduction in MIC 50 using Tricide (Penicillium sp.): 100%; Summary % reduction in MIC 90 using Tricide (Penicillium sp.): 100%; % decrease MIC 50 (Penicillium sp.; Tricide 200 ug/ml): 100%; % decrease MIC 90 (Penicillium sp.; Tricide 200 ug/ml): 100%; MIC 50 combined with Tricide (Penicillium sp.; Tricide 200 ug/ml): 0 µg/mL; MIC 90 combined with Tricide (Penicillium sp.; Tricide 200 ug/ml): 0 µg/mL; MIC50 (Penicillium sp.; antifungal alone): 0.181 µg/mL; MIC90 (Penicillium sp.; antifungal alone): 0.5 µg/mL; MIC50 [2, 7]: 0.0313 µg/mL; MIC90 [2, 7]: > 1 µg/mL; % decrease MIC 50 ([2]; Candida albicans, Tricide […]): 100%; % decrease MIC 90 ([2]; Candida albicans, Tricide […]): 100%; MIC 50 combined with Tricide ([2]; Candida albicans, Tricide […]): 0 µg/mL; Summary % reduction in MIC 50 using Tricide ([2]; Candidia albicans ATCC 90028): 100%; Summary % reduction in MIC 90 using Tricide ([2]; Candidia albicans ATCC 90028): 100%; Summary % reduction in MIC 50 using Tricide (Cladosporium sp.): 75%; Summary % reduction in MIC 90 using Tricide (Cladosporium sp.): 94%; % decrease MIC 50 (Cladosporium sp.; Tricide 200 ug/ml): >75%; % decrease MIC 90 (Cladosporium sp.; Tricide 200 ug/ml): 94%; MIC 90 combined with Tricide (Cladosporium sp.; Tricide 200 ug/ml): 0.125 µg/mL; MIC50 (Cladosporium sp.; antifungal alone): 0.5 µg/mL; MIC90 (Cladosporium sp.; antifungal alone): 2 µg/mL; % decrease MIC 50 (Curvularia sp.; [8]): 96.3-100%^; % decrease MIC 90 (Curvularia sp.; [8]): 74-100% ^; MIC 50 combined with Tricide (Curvularia sp.; [8]): 0 to 0.0250 µg/mL; MIC 90 combined with Tricide (Curvularia sp.; [8]): 0 to 0.4 µg/mL; Summary % reduction in MIC 50 using Tricide (Curvularia sp.; Curvularia sp.): 96.3%-100%; Summary % reduction in MIC 90 using Tricide (Curvularia sp.; Curvularia sp.): 74%-100%; MIC50 (Curvularia sp.; [9]): 0.667 µg/mL; MIC90 (Curvularia sp.; [9]): 1.56 µg/mL; Summary % reduction in MIC 50 using Tricide (Fusarium sp. 1; Fasarium sp. 1): >99.9%-100%; Summary % reduction in MIC 90 using Tricide (Fusarium sp. 1; Fasarium sp. 1): 99.9%-100%; % decrease MIC 50 (Fusarium sp. 1; [10]): >99.9-100% ^; % decrease MIC 90 (Fusarium sp. 1; [10]): 99.9-100%^; MIC 90 combined with Tricide (Fusarium sp. 1; [10]): 0 to 0.05 µg/mL; MIC50 (Fusarium sp. 1; [11]): > 128 µg/mL; MIC90 (Fusarium sp. 1; [11]): > 128 µg/mL; Summary % reduction in MIC 50 using Tricide (Fusarium sp. 3): 100%; Summary % reduction in MIC 90 using Tricide (Fusarium sp. 3): 100%; % decrease MIC 50 (Fusarium sp. 3; Tricide 540 ug/ml): 100%; % decrease MIC 90 (Fusarium sp. 3; Tricide 540 ug/ml): 100%; MIC 50 combined with Tricide (Fusarium sp. 3; Tricide 540 ug/ml): 0 µg/mL; MIC 90 combined with Tricide (Fusarium sp. 3; Tricide 540 ug/ml): 0 µg/mL; MIC50 (Fusarium sp. 3; antifungal alone): > 128 µg/mL; MIC90 (Fusarium sp. 3; antifungal alone): > 128 µg/mL
